Data from PubChem BioAssay (NCI).
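Five compound concentrations were applied to cells in 96-well plates for 48 hours; endpoints were derived by simple linear interpolation of the resulting dose-response curve. The concentration for 50% growth inhibition is given as GI50. At the TGI there is no net growth.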

Assays:
Assay in all cases: DTP human tumour cell line panel, 48 h
HL-60(TB) leukemia = test system: HL-60(TB) leukemia
CAKI-1 renal = test system: CAKI-1 renal
UACC-257 melanoma = test system: UACC-257 melanoma
TK-10 renal = test system: TK-10 renal
NCI-H226 lung = test system: NCI-H226 lung
NCI-H23 lung = test system: NCI-H23 lung
UO-31 renal = test system: UO-31 renal
OVCAR-5 ovarian = test system: OVCAR-5 ovarian
SK-OV-3 ovarian = test system: SK-OV-3 ovarian
MALME-3M melanoma = test system: MALME-3M melanoma

SMILES	GI50 (HL-60(TB) leukemia)	TGI (HL-60(TB) leukemia)	GI50 (CAKI-1 renal)	TGI (CAKI-1 renal)	GI50 (UACC-257 melanoma)	TGI (UACC-257 melanoma)	GI50 (TK-10 renal)	TGI (TK-10 renal)	GI50 (NCI-H226 lung)	TGI (NCI-H226 lung)	GI50 (NCI-H23 lung)	TGI (NCI-H23 lung)	GI50 (UO-31 renal)	TGI (UO-31 renal)	GI50 (OVCAR-5 ovarian)	TGI (OVCAR-5 ovarian)	GI50 (SK-OV-3 ovarian)	TGI (SK-OV-3 ovarian)	GI50 (MALME-3M melanoma)	TGI (MALME-3M melanoma)
CCOC(=O)[C@@H](C)C[C@H](Cc1ccccc1)NC(=O)c1nc([C@@H](C[C@H](C(C)C)N(C)C(=O)[C@@H](NC(=O)[C@H]2CCCCN2C)C(C)C)OC(C)=O)sc1CCOCc1ccccc1	0.0394 µM	0.19 µM	0.128 µM	2.18 µM	1.51 µM	4.19 µM	0.631 µM	5.28 µM	0.107 µM	1.05 µM	0.188 µM	5.6 µM	0.586 µM	2.24 µM	0.246 µM	4.11 µM	0.0188 µM	> 11.1 µM	0.0602 µM	2.17 µM
COc1cccc(CCC2CCCN(c3cc(C)nc(N)n3)C2)c1 (stereo not drawn)	0.251 µM	0.686 µM	0.385 µM	13.4 µM	1.37 µM	17.7 µM	0.794 µM	14.8 µM	1.91 µM	19.3 µM	0.614 µM	14 µM	0.576 µM	11.9 µM	1.54 µM	17.7 µM	0.414 µM	11.7 µM	0.527 µM	14.9 µM
Nc1c(-c2cn(Cc3ccccc3)c3ccccc23)[n+]([O-])c2ccccc2[n+]1[O-]		42.6 µM		68 µM		35.5 µM		> 100 µM		36.5 µM		93.6 µM		38.8 µM		> 100 µM		95.3 µM		> 100 µM
CC1=Nc2ccccc2NC(c2ccoc2)C1 (stereo not drawn)		> 100 µM		> 100 µM		> 100 µM		> 100 µM		> 100 µM		> 100 µM		> 100 µM		> 100 µM		> 100 µM		> 100 µM
C[C@]12CCc3nc(Nc4cccc(O)c4)sc3C1=CC[C@@H]1[C@@H]2CC[C@]2(C)/C(=N\NC(N)=S)CC[C@@H]12	2.53 µM	8.31 µM	1.64 µM	3.26 µM	2.12 µM	6.4 µM	1.9 µM	4.4 µM	5.34 µM	80.7 µM	2.78 µM	8.96 µM	1.4 µM	2.83 µM	2.6 µM	7.77 µM	3.21 µM	22 µM	1.6 µM	3.51 µM
O=C1/C(=C\c2ccc(F)cc2)CN(C(=O)c2ccccc2)C/C1=C\c1ccc(F)cc1	3.56 µM	> 100 µM	2.82 µM	66.2 µM	2.41 µM	8.52 µM	4.21 µM	17.3 µM	26.6 µM	> 100 µM	4.83 µM	21.8 µM	2.4 µM	10.6 µM	2.64 µM	11.7 µM	5.95 µM	19.5 µM	3.66 µM	12.2 µM
COc1ccc(N=Cc2c(O)ccc3c2oc2cc(Cl)c(O)c(Cl)c23)cc1	13.2 µM	42.7 µM	4.75 µM	28.1 µM	15.9 µM	48.8 µM	20.3 µM	48.3 µM	13.7 µM	41.7 µM	12.2 µM	42.5 µM	5 µM	26.6 µM	17.5 µM	38.9 µM	15.9 µM	49.5 µM	3.63 µM	21.8 µM
CC12OOC(c3ccccc31)c1c2ccc2ccccc12 (stereo not drawn)		2.72 µM		4.64 µM		26.8 µM		22.3 µM		39.3 µM		26.6 µM		23.2 µM		33.6 µM		34.3 µM		5.79 µM
CC(=O)Nc1ccccc1-c1nc2ccccc2nc1C		> 100 µM		> 100 µM		> 100 µM		> 100 µM		> 100 µM		> 100 µM		> 100 µM		> 100 µM		> 100 µM		> 100 µM
COC(=O)C1=Cc2cc(OC)c(OC)c(OC)c2[C@H](c2cc(OC)c(OC)c(OC)c2)C1C(=O)OC (stereo partly drawn)		> 100 µM		> 100 µM		> 100 µM		> 100 µM		> 100 µM		> 100 µM		> 100 µM		> 100 µM		> 100 µM		> 100 µM
CC[C@H](NC(=O)[C@H]1CCCCN1C)C(=O)N(C)[C@H](C[C@@H](OC(C)=O)c1nc(C(=O)N[C@@H](Cc2ccccc2)C[C@H](C)C(=O)O)cs1)C(C)C	0.00433 µM	0.019 µM	0.00602 µM	> 14.3 µM	> 14.3 µM	> 14.3 µM		> 14.3 µM		> 7.57 µM	0.0073 µM	> 14.3 µM	0.0741 µM	> 14.3 µM	0.0288 µM	> 14.3 µM	0.00383 µM	> 14.3 µM	0.00538 µM	> 14.3 µM
O=C(COc1ccc(/C=C2\COc3ccccc3C2=O)cc1)Nc1nccs1	1.68 µM	3.48 µM	7.55 µM	20.7 µM	13.3 µM	30.6 µM	28.7 µM	58.5 µM	14.4 µM	29.9 µM	11.2 µM	25.4 µM	11.9 µM	25.5 µM	16.7 µM	32.9 µM	30.9 µM	69.5 µM	16.3 µM	36.2 µM
CCOC(=O)C1=C(C)N=c2s/c(=C\c3ccccc3O)c(=O)n2C1c1ccc(OC)c2ccccc12 (stereo not drawn)	38.6 µM	> 100 µM	10 µM	25.9 µM	31.8 µM	> 100 µM	11 µM	23.3 µM	12.6 µM	32.4 µM	7.72 µM	30.7 µM	15.6 µM	33.1 µM	17.1 µM	> 100 µM	14 µM	27 µM	4.14 µM	19 µM
CC(C)(C)N1CCC1CN (stereo not drawn)	> 100 µM	> 100 µM	> 100 µM	> 100 µM	> 100 µM	> 100 µM	> 100 µM	> 100 µM	> 100 µM	> 100 µM	> 100 µM	> 100 µM	> 100 µM	> 100 µM	> 100 µM	> 100 µM	> 100 µM	> 100 µM	> 100 µM	> 100 µM
